According to article PMC6269977, “Chemistry and Antiviral Activity of Arrabidaea pulchra (Bignoniaceae)” (Molecules, 2013):
Converted amounts (≈) assume the structure as drawn.

Key:
[1] = tested on: Vaccinia virus Western Reserve (VACV-WR); format: cell-based
in vitro [2] = settings: rhesus monkey
HSV-1 = settings: cited from earlier work
[3] = tested on: Murine encephalomyocarditis virus (EMCV); format: cell-based; settings: viral titer TCID50/mL 1.0 × 10^6 in 48 h; NA = no activity in the assayed concentrations
in vitro [4] = settings: African green monkey
[5] = tested on: Human herpesvirus 1 (HSV-1); assay: microbe, parasite or virus in culture; format: cell-based; settings: for HSV-1 EC50 / EC50: viral titer TCID50/mL 2.5 × 10^6 in 48 h, NA = no activity in the assayed concentrations; for EC50: Human alphaherpesvirus 1
HSV-2 = settings: cited from earlier work
[6] = tested on: respiratory syncytial virus (RSV); settings: isolated from Markhamia lutea; cited from earlier work
Dengue virus 2 (DENV-2) = assay: microbe, parasite or virus in culture; format: cell-based; settings: DENV2, viral titer TCID50/mL 1.0 × 10^4 in 72 h

Row | SMILES | VACV-WR EC50 [1] | CC50 (in vitro [2]) | HSV-1 EC50 (HSV-1) | anti-herpes activity (HSV-1; previous report) | EMCV EC50 [3] | CC50 (in vitro [4]) | HSV-1 EC50 [5] | HSV-2 EC50 (HSV-2) | RSV EC50 [6] | EC50 (Dengue virus 2 (DENV-2)) | EC50 [5] | HSV-1 virus inhibition ([5]; at concentrations as low 2 μg/mL, Figure 4A)
1 | C[C@@H]1O[C@@H](O[C@@H]2[C@@H](O)[C@H](OCCc3ccc(O)c(O)c3)O[C@H](CO)[C@H]2OC(=O)/C=C/c2ccc(O)c(O)c2)[C@H](O)[C@H](O)[C@H]1O [AP 1, verbascoside] | not active | 12.9 ± 1.1 µg/mL (≈ 20.7 µM) | 58.0 µg/mL | had not shown anti-herpes activity | not active | > 200 µg/mL | no effect was observed | 8.9 µg/mL | 0.80 µg/mL | 3.4 ± 0.4 µg/mL (≈ 5.44 µM) | – | –
2 | C[C@H]1[C@H](C)CC[C@]2(C(=O)O)CC[C@]3(C)C(=CC[C@@H]4[C@@]5(C)CC[C@H](O)C(C)(C)[C@@H]5CC[C@]43C)[C@H]12 [AP 3, ursolic acid] | not active | 9.9 ± 1.3 µg/mL (≈ 21.7 µM) | – | – | not active | 8.1 ± 0.9 µg/mL (≈ 17.7 µM) | low activity | – | – | 3.2 µg/mL (≈ 7.01 µM) | 6.2 ± 0.1 µg/mL (≈ 13.6 µM) | 50%
3 | Nc1nc2c(ncn2COCCO)c(=O)[nH]1 [Acyclovir, reference compound] | – | – | – | – | – | – | – | – | – | – | 40 µg/mL (≈ 178 µM) | –
